Test results taken from patent US7736630B2, “Products for preventing penetration into the skin” (priority 2002, dated 2010).
Where two headings read alike, the source gives them in different places.

Test: Skin permeation and skin accumulation in Franz diffusion cells
Type: in vitro ADME, nude mice (CD1)
Method: The permeation of pure OMC and Di(4-methoxycinnamoyl)jojobadiol (two —OH groups esterified) was measured by using dorsal skin of male, 7 weeks old, nude mice (CD1, Weizmann Institute, Israel).
The experiments were carried out for 24 hours at 37° C. in Franz diffusion cells. Samples of 200 μl were taken at 1, 2, 4, 6, 8 and 24 hours. 10 mg of each compound were applied on each skin (area—1.77 cm^2). The receiver compartment contained EtOH:H2O (1:1). At the end of the experiment the skin was cleaned and the skins were extracted with 10 ml EtOH. The amounts of the OMC and derivative Di(4-methoxycinnamoyl)jojobadiol were assayed by HPLC.

penetration/permeation across the skin (in words)	amount penetrated as % of the dose applied on the skin (male, CD1 nude, mouse, 24 h) [%]	amount which penetrated into the skin at the end of permeation experiment (male, CD1 nude, mouse, 24 h) [µg]	amount accumulated in the skin at the end of experiment (10 mg on 1.77 cm^2 skin, 24 hours, 37° C., skin extracted with 10 ml EtOH, FIG. 7) [µg]	penetration/permeation across the skin (in words) (24 hours in vitro permeation, lowest detectable concentration of the derivative by HPLC 0.8 μg/ml, FIG. 6)	penetration/permeation across the skin (in words) (24 hours in vitro permeation, lowest detectable concentration of the derivative by HPLC 0.8 μg/ml, FIG. 6, listed as di(4-methoxy-cinnamoyl)jojobadiol)	skin accumulation, OMC compared with Di(4-methoxycinnamoyl)jojobadiol (end of 24 hours experiment, FIG. 7)	Molecule
permeates to the skin	8.76	876 ± 235					CCCCC(CC)COC(=O)C=Cc1ccc(OC)cc1 (stereo not shown) [OMC, octylmethoxycinnamate, reference compound]
			900 ± 359	no penetration	does not	about third of the amount of the OMC	Di(4-methoxycinnamoyl)jojobadiol
